EC50, IC50 and outcome data for 74 molecules are collected here from PubChem BioAssay AID179 (DTP/NCI, 2004).

The experiment has as its system CEM cells HIV-1 protection, formazan growth assay. As to the kind of experiment: NCI AIDS Antiviral Assay. The following applies: for IC50: measured here: growth of uninfected CEM cells. In outline: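 Screen of anti-HIV-1 activity in human CEM cells using a formazan-based growth measurement at five drug concentrations. Hits with 50% or greater protection were repeated, and confirmation required reproducible complete protection.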

Activity calls are given as the source filed them.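 How the source made its calls: active means compounds giving half or more protection of infected cells from virus-caused growth loss, again on retest; inactive means the rest.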 Where a SMILES comes first, the peptide text is derived from it. The star is where a group is joined. Boc = CC(C)(C)OC(=O)*

Turning to `CCCCCCCCCCCCCCCCCCC1=C(O)C(=O)C=C(OC)C1=O`, the EC50 (commonly the midpoint of the concentration-response curve) was above 200 µM and the IC50 (as a rule, the midpoint of a concentration-inhibition curve) was found to be 49 µM. Regarding `CN1N=C(c2ccccc2)C(C(c2ccccc2[N+](=O)[O-])C2C(=O)N(C)N=C2c2ccccc2)C1=O` (stereo not given), the EC50 is above 81.3 µM and the IC50 was determined as 15.8 µM.

In the case of `CN(C)CCCCN1c2ccccc2Sc2ccc(C(=O)c3ccccc3)cc21`, the EC50 is above 200 µM and the 50% inhibitory concentration (IC50) is 6.61 µM. Take `O=c1nc2[nH]nc(-c3ccccc3)c2n[nH]1`: the result was inactive. Regarding `Cc1ccc(S(=O)(=O)N(C)CC(=O)c2ccccc2)cc1`, the EC50 is above 117 µM and the IC50 was above 117 µM.

For `N#Cc1c(N=C/C=C/c2ccccc2)c(C(=O)Nc2ccccc2)n2c1CCC2`, the EC50 was above 200 µM and the concentration for half-maximal inhibition (IC50) was above 200 µM.

On to `CC1(C)C2CCC3=C(CCC4(C)C5C[C@](C)(C(=O)O)CC[C@]5(C)CC[C@]34C)[C@@]2(C)CC[C@@H]1O` (stereo not given in full), for which the EC50 is 24 µM and the IC50 is 81.3 µM.

Consider `O=C1c2cscc2C(=O)c2sccc21`, for which the EC50 is above 200 µM and the IC50 came to 23.4 µM. Take `COc1ccc(-c2c3c(n(C4OC(CO)C(O)C(O)C4O)c(=S)c2C#N)CCC3)cc1` (stereo not given): the EC50 was above 200 µM and the IC50 was 43.7 µM. As to `NC(=O)c1nc(-c2ccc(Cl)c(Cl)c2)nc2ccccc12`, the result was inactive. Regarding `CCOP(=O)(/C=C(\Cl)c1ccccc1)OCC`, the EC50 is above 129 µM and the IC50 was above 129 µM. For `Cc1cc2c(=O)cc(-c3ccc(C(=O)O)cc3)oc2c(C(N)=O)c1C`, the result was inactive. As to `O=C(Nc1ccccn1)c1ccccc1[Se][Se]c1ccccc1C(=O)Nc1ccccn1`, the EC50 is 3.55 µM and the IC50 came out at 8.13 µM.

In the case of `COc1cccc(NCC(=O)Nn2c(-c3ccccc3)nc3ccccc3c2=O)c1`, the EC50 was above 200 µM and the IC50 worked out at 112 µM. On to `C1CCN(c2nc(=[N+]3CCCCC3)ss2)CC1`, for which the outcome was inactive. As to `COC1=C(C)C(=O)c2ncccc2C1=O`, the result was inactive. For `N#CCCC1C(C#N)C2CC1C1C3C=CC(C3)C21` (stereo not given), the EC50 was above 200 µM and the IC50 is above 200 µM.

Take `Cc1c(O)c2cccc(-c3ccccc3)c2oc1=O`: the EC50 is above 200 µM and the IC50 was determined as 132 µM. With `CC1NC(=O)C2=C1C(=O)NC(=O)C2` (stereo not given), the EC50 was 40.7 µM and the IC50 worked out at 195 µM. Consider `COc1ccc(C[C@@H]2CN(C(=O)c3ccccc3)[C@H](Cc3ccc(O)cc3)CN2C(=O)c2ccccc2)cc1Br`, for which the EC50 was above 200 µM and the IC50 was determined as 126 µM. In the same order, the values of `COc1cc(CNC(=O)CCCCCCCCCCSC#N)ccc1O` are above 200 µM and 27.5 µM. In the case of `CN(c1ccccc1)c1nc(=[N+]2CCCC2)ss1`, the result was inactive.

Turning to `CCN(CC)CSc1nc2ccccc2o1`, the outcome was inactive. As to `COc1cc(/C=C2\SC(=S)N(/C=C(/C#N)C(=O)c3ccc4ccccc4c3)C2=O)cc(OC)c1OC`, the EC50 was above 200 µM and the IC50 came out at 14.8 µM. In the same order, the values of `CC(NC(=O)C(NC(=O)OC(C)(C)C)C(C)C)C(=O)N1CCCC1C(=O)NCC(=O)NC(C(=O)NCC(=O)O)C(C)C` (stereo not given) (Boc-VAPGVG-OH; configuration not given here) are above 200 µM and above 200 µM. Take `CCc1cccc(C(C)CC)c1NC(=O)CC1C(=O)Nc2ccccc2S1(=O)=O` (stereo not given): the EC50 was above 12 µM and the IC50 is above 12 µM. Turning to `N#C/C(=C\n1c(=S)[nH]c2ccc([N+](=O)[O-])cc21)C(=O)c1ccc2ccccc2c1`, the EC50 is above 200 µM and the IC50 is above 200 µM. In the case of `Cc1c(O)c(C)c2c(C)cn(C(=O)C(C)(C)C)c2c1C`, the EC50 was above 200 µM and the IC50 worked out at 30.2 µM. The corresponding values for `COc1nc(N)nc2c1n(C)c[n+]2C` are above 200 µM and 141 µM. In the same order, the values of `Clc1ccc2c(NCCCCN=Cc3ccccc3)ccnc2c1` are above 200 µM and 26.9 µM. On to `CCN(CC)CCN1C(=O)c2cccc3cc(OC)cc(c23)C1=O`, for which the EC50 was above 200 µM and the IC50 was found to be 3.47 µM. Take `O=C1/C(=C/c2ccco2)NC(=S)N1CN1CCOCC1`: the EC50 is above 200 µM and the IC50 worked out at 91.2 µM.

Turning to `CC1=CCCC2C(C1)C(=O)CC(C)C2(C)CC/C(=C/CO)CO` (stereo not given), the outcome was inactive. On the same count and under the same terms, with `COc1ccc(-c2coc3c4c(ccc3c2=O)OCO4)cc1OC` the entry was “inactive”. In the case of `CCc1nn(S(=O)(=O)c2ccc(C)cc2)c2c1CS(=O)(=O)CC2`, the EC50 is above 200 µM and the IC50 was above 200 µM. Take `CC1CN=C(N(C(=O)Nc2ccc(Cl)c(Cl)c2)c2ccccc2)S1` (stereo not given): the EC50 is above 200 µM and the IC50 is above 200 µM. On to `CCCCCCCCCCCc1c2oc3ccccc3nc-2cc(Nc2ccccc2O)c1=O`, for which the EC50 was above 2.95 µM and the IC50 is above 2.95 µM.

`COC(=O)CCC(C)C1CCC2[C@@H]3CC[C@@H]4CC(=O)CC[C@]4(C)C3CC[C@]12C` (stereo not given in full): the EC50 is above 5.13 µM and the IC50 was above 5.13 µM.

Turning to `Cc1ccc(S(=O)(=O)/C(C#N)=C/NS(=S)c2ccncc2)cc1` (stereo not given), the outcome was inactive. On to `O=C1c2ccccc2C(=CC=C2c3ccccc3Sc3ccccc32)c2ccccc21`, for which the EC50 is above 9.12 µM and the IC50 is above 9.12 µM. Turning to `O=C(O)C1C2CCC(O2)C1C(=O)O` (stereo not given), the EC50 is above 1350 µM and the IC50 is above 1350 µM.

As to `COc1ccc(/C=C/C(=O)c2c(-c3ccccc3)nn(C)c(=O)c2N2CCCC2)cc1`, the EC50 was above 67.6 µM and the IC50 is above 67.6 µM.

With `CCc1cccc(C)c1NC(C)=O`, the result was inactive. For the molecule `COc1ccc2c(c[n+](C)c3c4cc5c(cc4ccc23)OCO5)c1OC`, the EC50 was above 3.24 µM and the IC50 came to 0.372 µM. The corresponding values for `CCN(CC)CCNC(=O)c1ccccc1Nc1c(Cl)cccc1Cl` are above 200 µM and 27.5 µM.

On to `Cc1cc2nc3c(C(O)C(O)C(O)CO)nn(-c4ccc(F)cc4)c3nc2cc1C` (stereo not given), for which the EC50 is 89.1 µM and the IC50 was above 200 µM. For `CCOc1ccccc1NC(=O)CCc1nc(=S)[nH][nH]1`, the EC50 is above 851 µM and the IC50 came out at 316 µM. In the same order, the values of `CC(C)N(C(=O)C12C3C4C5(C(=O)O)C(C1C35I)C42C(=O)O)C(C)C` (stereo not given) are above 562 µM and above 562 µM. In the same order, the values of `CCOC(=O)N1C2C=C(C)C(C3C(C)C(=O)N31)N(C(=O)c1ccccc1)O2` (stereo not given) are above 355 µM and above 355 µM. As for `O=C1CCCNn2c(nc3ncccc3c2=O)N1`, the EC50 was above 200 µM and the IC50 was determined as 158 µM.

Turning to `CC(=O)O[C@H]1CSC[C@@H](OC(C)=O)C1[N+](=O)[O-]` (stereo not given in full), the EC50 was above 692 µM and the IC50 worked out at 33.1 µM. In the same order, the values of `C[C@]12CC[C@@H]3c4cc(I)c(O)cc4CC[C@H]3[C@@H]1CC[C@@H]2O` are above 200 µM and 2.09 µM. In the same order, the values of `CN(CCC#N)C1=CCCC1` are above 200 µM and above 200 µM. The corresponding values for `NC(CO)C(=O)N1CCCC1C(=O)NC(Cc1ccc(O)cc1)C(=O)N1CCCC1C(=O)NC(CO)C(=O)O` (stereo not given) (H-SPYPS-OH; configuration not given here) are above 112 µM and above 112 µM. On to `Cn1c(=O)c2c(c3c(c(=O)n(C)c(=O)n3C)n2Cc2ccccc2)n(C)c1=O`, for which the EC50 is above 93.3 µM and the IC50 is above 93.3 µM. As for `CNc1ncc(-c2nnnn2-c2ccccc2)c(CN(C)C)n1`, the EC50 is above 200 µM and the IC50 was above 200 µM. As to `N#Cc1c(-c2ccccc2)cc(-c2ccc(N)cc2)[nH]c1=O`, the EC50 is above 18.2 µM and the IC50 is above 18.2 µM. With `CC(=O)O[C@H]1CCC2[C@@H]3CCC4C(=O)c5[nH]ncc5C[C@]4(C)C3CC[C@@]21C` (stereo not given in full), the EC50 is above 87.1 µM and the IC50 is above 87.1 µM.

Take `Cc1cccc(NC(=O)CC(=O)N2N=C(N(CCC#N)c3ccccc3Cl)CC2c2ccccc2)c1` (stereo not given): the EC50 is above 186 µM and the concentration for half-maximal inhibition (IC50) was above 186 µM. For `Cn1c(=O)oc2cc(C(O)CN3CCN(Cc4ccccn4)CC3)c(Cl)cc21` (stereo not given), the EC50 is above 200 µM and the half-maximal inhibitory concentration (IC50) stood at 195 µM. For the molecule `CCCCCCCCCCCCCCCCCC(=O)NCCCNCCCNC(=O)CCCCCCCCCCCCCCCCC`, the EC50 is above 12.6 µM and the IC50 is above 12.6 µM.

In the case of `CCCCCCCCCCSS(=O)(=O)c1ccc(C)cc1`, the EC50 is above 21.9 µM and the IC50 came out at 9.55 µM. Regarding `CCCCN=C(NC#N)NCCCC`, the EC50 was above 457 µM and the IC50 was 224 µM. `O=C1c2cc3c(cc2CC12Cc1ccc4c(c1C2=O)CCCC4)CCCC3` (stereo not given): the EC50 is above 200 µM and the IC50 was above 200 µM.

In the case of `CCOC(=O)c1sc2c(c1OC(=O)c1ccccc1)c(=O)n(-c1ccccc1)c(=S)n2-c1ccccc1`, the EC50 is above 200 µM and the IC50 was 132 µM.

As for `C1CCCCC/C2=C(\CCCC1)CSCCCS2`, the EC50 was above 200 µM and the IC50 is 58.9 µM. The corresponding values for `C=COC(=O)N1C2CCCC(Cl)(C(C)=O)C1CC2` (stereo not given) are above 200 µM and 55 µM.

As for `c1ccc2[nH]c(C3=NCCN3)nc2c1`, the EC50 is above 53.7 µM and the IC50 is above 53.7 µM.

For the molecule `CC1(C)CCc2ccc(OCCC#N)cc2O1`, the result was inactive. `CC[C@H](O)[C@H](C)C=C1SCCCS1`: the EC50 was above 200 µM and the IC50 was above 200 µM. `CC(=O)C(N=Nc1ncn[nH]1)C(C)=O`: the EC50 is above 200 µM and the IC50 stood at 170 µM.

Regarding `COc1cc2c(cc1OC)C(C#N)N(C(=O)c1ccccc1)C=C2OC(=O)c1ccccc1` (stereo not given), the outcome was inactive. Consider `Cc1ccc(S(=O)(=O)/N=C(\N)N(C)N=O)cc1`, for which the EC50 is above 200 µM and the IC50 amounted to 63.1 µM. In the same order, the values of `Cc1cc2c(O)c(c1)CN(CC(=O)O)Cc1cc(C)cc(c1O)CN(CC(=O)O)Cc1cc(C)cc(c1O)CN(CC(=O)O)C2` are above 200 µM and above 200 µM.
